Measured values: US20250351820A1, “SUPRAMOLECULAR POROUS ORGANIC FRAMEWORKS FOR STORAGE AND DELIVERY OF VOLATILE GUESTS” (KANSAS STATE UNIVERSITY RESEARCH FOUNDATION, priority 2022, published 2025)

Type: physicochemical
Experimental: In one approach, the HOF encapsulated guest was prepared by dissolving trimesic acid and guest in methanol a 1:8 molar ratio. The mixture was stirred at room temperature for up to 48 hours. The solution was then left undisturbed allowing for slow evaporation to take place until crystals were obtained. For particularly oily guest molecules, an additional solvent was required to dissolve trimesic acid. Successful guest uptake was confirmed by single crystal X-ray diffraction (SCXRD). Thermogravimetric analysis was used to monitor the weight loss as a function of temperature, and ^1H NMR was used to confirm the presence of both host and guest in the sample.
In order to determine to what extent a particular guest is included within the host structure, we carried out thermal gravimetric analysis (TGA) on the resulting samples. A typical TGA measurement will record the weight-loss as a function of temperature and this will allow us to estimate the relative amount of solvent/guest/host present in a particular sample. […] The host itself begins to thermally degrade at around 250° C.

- temperature at which the host begins to thermally degrade: around 250 °C
SMILES: O=C(O)c1cc(C(=O)O)cc(C(=O)O)c1 [trimesic acid]
